# Assays:
# CLL cells [1] = assay: Cytotoxicity in presence of cross-linking (annexin V/PI); type: cell-based, human; conditions: for cell death (antibody-mediated apoptosis in the presence of cross-linking): rituximab 10 μg/mL + 50 μg/mL anti-Fc
# Experimental: Cells (10^6 cells/mL) were treated with commercially purchased alemtuzumab (anti-CD52; Ilex Pharmaceuticals, San Antonio, Tex.), rituximab (anti-CD20; Genentech, San Francisco, Calif.), or trastuzumab (anti-HER2; Genentech) at a concentration of 10 μg/mL. Goat antihuman IgG cross-linker (Fc specific; Jackson ImmunoResearch Laboratories, West Grove, Pa.) was added to the cell suspension 5 minutes after adding the primary antibodies at a concentration of 50 μg/mL.
# In addition, samples with no treatment or crosslinker alone were collected at matched time points. Apoptosis of cells at 24 and 48 hours after treatment was measured by annexin V-fluorescein isothiocyanate/propidium iodide (PI) flow cytometry analysis according to the supplier's instructions (BD Biosciences).
# Cytotoxicity results were expressed as percentage of total positive cells over untreated control [% positive cells=(% annexin^+ and/or PI^+ cells of treatment group)−(% annexin^+ and/or PI^+ cells of untreated control)].
# CLL cells [2] = assay: ADCC, 4-hour 51Cr-release assay; type: cell-based, human; conditions: using alemtuzumab, data not shown
# Experimental: For ADCC experiments, CD56^+ and CD19^+ cells were negatively purified from whole blood obtained from either healthy volunteers or CLL subjects by magnetic-activated cell sorting according to the manufacturer's recommendations (MiniMACS; Miltenyi Biotec, Auburn, Calif.). The purity of enriched populations was always greater than 95% of the total yield as detected by CD19 and CD3 staining.
# ADCC activity was determined by standard 4-hour ^51Cr-release assay. ^51Cr-labeled target cells (10^5 CLL cells/mL) were incubated with media alone or in the presence of various antibodies (10 μg/mL) at 37° C. for 30 minutes. Unbound antibody was washed off and the cells plated at 10^4 cells/well. Effector cells (natural killer [NK] cells from healthy donors or CLL subjects) were then added to the plates at indicated effector-to-target (E:T) ratios. After a 4-hour incubation, supernatants were removed and measured using a gamma counter. The percentage of specific cell lysis was determined by the equation: % lysis=100×(ER−SR)/(MR−SR), where ER, SR, and MR represent experimental, spontaneous, and maximum release, respectively. Data were normalized to the untreated control.
substance,measurement,setting,value
rituximab: anti-CD20 antibody; Genentech,cell death (antibody-mediated apoptosis in the presence of cross-linking),"CLL cells [1]; lenalidomide-treated CLL cells (48 hours), N=10, P<0.017",11% ±8%
same,cell death (antibody-mediated apoptosis in the presence of cross-linking),"CLL cells [1]; vehicle-treated CLL cells (48 hours), N=10",25% ±11%
alemtuzumab: anti-CD52 antibody; Ilex Pharmaceuticals,change in alemtuzumab-mediated apoptosis with lenalidomide treatment,"CLL cells [1]; lenalidomide 48 hours, cross-linking, same conditions",No significant change
same,"change in ADCC, lenalidomide versus untreated cells",CLL cells [2],no significant change

# Reference: patent US20110280913A1, “Methods and Compositions for Delivering Therapeutic Agents in the Treatment of B-Cell Related Disorders” (THE OHIO STATE UNIVERSITY, priority 2008, published 2011)
